The test system of one data set is rrs gene. In kind it is binding. To be noted: clinical DNA.
Another data set concerns eis promoter region. In kind it is binding. The following applies: clinical DNA.
The test system of data set [1] is M.tb isolates. It counts as cell-based, Mycobacterium tuberculosis.
The test system of data set [2] is M.tb isolates. It counts as cell-based, Mycobacterium tuberculosis. This is another data set of the same source.
[3] abbreviates: eis promoter G(−10)A + NM (mixed).
The mark [4] stands for this setting: rrs-A1401G + eis C(−14)T double mutant.

Where two headings read alike, the source gives them in different places.

Consider “cacgACCGCCCGTCACGTCATGAAAGTCGGTcgtg (DNA CACGACCGCCCGTCACGTCATGAAAGTCGGTCGTG; molecular beacon, labels not given here, further chemistry not given here) [rrs-1400, SMB probe targeted against the rrs gene]”, for which the “Mean Tm” value with rrs gene (No mutation (NM), wild type) turned out to be 70.1 °C; in the data set with rrs gene (eis promoter C(−8) deletion), 70.10 °C; in the data set on rrs gene (eis promoter C(−12)T), 70.15 °C; in the data set on rrs gene (eis promoter C(−14)T), 70.10 °C; in the data set with rrs gene (eis promoter G(−10)A) it was 70.20 °C; in the data set on rrs gene (setting [3]), 70.20 °C. For the same compound, the “Mean Tm” value in the data set on rrs gene (eis promoter G(−37)T) was 70.20 °C; with rrs gene (rrs gene A1401G) it was 66.20 °C; in the data set with rrs gene (rrs gene A1401G + NM (mixed, double Tm peak)) it was 66.20-70.10 °C; with rrs gene (rrs gene C1402T + NM (mixed, double Tm peak)), 64.50-70.10 °C; with rrs gene (setting [4]), 66.30 °C. Also, the “dTm (Tm difference of mutant from wild type)” value in the data set with rrs gene (eis promoter C(−8) deletion) was 0.00 °C; in the data set on rrs gene (eis promoter C(−12)T), −0.05 °C; in the data set with rrs gene (eis promoter C(−14)T) it was 0.00 °C; in the data set with rrs gene (eis promoter G(−10)A) it was −0.10 °C; in the data set on rrs gene (setting [3]) it was −0.10 °C; in the data set on rrs gene (eis promoter G(−37)T) it was −0.10 °C. For the same compound, the “dTm (Tm difference of mutant from wild type)” value stood at 3.9 °C in the data set on rrs gene (rrs gene A1401G), 3.90 °C in the data set with rrs gene (rrs gene A1401G + NM (mixed)), 5.6 °C in the data set on rrs gene (rrs gene C1402T + NM (mixed)) and 3.80 °C with rrs gene (setting [4]).

As for “ctcgcGGCATATGCCACAGTCGGATTCTcTGACgcgag (DNA CTCGCGGCATATGCCACAGTCGGATTCTCTGACGCGAG; molecular beacon, labels not given here, further chemistry not given here) [eis-2, SMB probe targeted against the eis promoter region]”, the “Mean Tm” value with eis promoter region (No mutation (NM), wild type) turned out to be 69 °C; in the data set on eis promoter region (No mutation (NM), wild type, listed as eis2) it was 69.00 °C; in the data set with eis promoter region (eis promoter C(−8) deletion), 63.10 °C; in the data set with eis promoter region (eis promoter C(−12)T) it was 62.92 °C; in the data set on eis promoter region (eis promoter C(−14)T), 62.60 °C; in the data set with eis promoter region (eis promoter G(−10)A), 64.70 °C. For the same compound, the “Mean Tm” value is 64.80-69.10 °C in the data set with eis promoter region (eis promoter G(−10)A + NM (mixed, double Tm peak for eis2)); 69.10 °C in the data set on eis promoter region (eis promoter G(−37)T); 69.10 °C in the data set on eis promoter region (rrs gene A1401G); 69.10 °C in the data set on eis promoter region (rrs gene A1401G + NM (mixed)); 69.20 °C in the data set with eis promoter region (rrs gene C1402T + NM (mixed)); 62.50 °C in the data set on eis promoter region (setting [4]). The “dTm (Tm difference of mutant from wild type)” value was 5.90 °C in the data set on eis promoter region (eis promoter C(−8) deletion); 6.08 °C with eis promoter region (eis promoter C(−12)T); 6.40 °C in the data set on eis promoter region (eis promoter C(−14)T); 4.30 °C in the data set on eis promoter region (eis promoter G(−10)A); 4.20 °C in the data set with eis promoter region (setting [3]); −0.10 °C in the data set with eis promoter region (eis promoter G(−37)T). Further, the “dTm (Tm difference of mutant from wild type)” value in the data set with eis promoter region (rrs gene A1401G) was −0.10 °C; in the data set with eis promoter region (rrs gene A1401G + NM (mixed)), −0.10 °C; in the data set with eis promoter region (rrs gene C1402T + NM (mixed)), −0.20 °C; in the data set on eis promoter region (setting [4]) it was 6.50 °C.

Turning to `NC[C@H]1O[C@H](O[C@H]2[C@H](O)[C@@H](O[C@H]3O[C@H](CO)[C@@H](O)[C@H](N)[C@H]3O)[C@H](N)C[C@@H]2N)[C@H](O)[C@@H](O)[C@@H]1O` [KAN, Kanamycin], in the data set with M.tb isolates [1], the “Susceptibility (LJ)” value is “S and R”; the “Total number of isolates Susceptible (LJ)” value was determined as 497. In the data set on M.tb isolates [2], the “Susceptibility (MGIT)” value was “R and S”; the “Total number of isolates Susceptible (MGIT)” value is given as 447.

Take `NCC[C@H](O)C(=O)N[C@@H]1C[C@H](N)[C@@H](O[C@H]2O[C@H](CN)[C@@H](O)[C@H](O)[C@H]2O)[C@H](O)[C@H]1O[C@H]1O[C@H](CO)[C@@H](O)[C@H](N)[C@H]1O` [AMK, Amikacin]: in the data set on M.tb isolates [1], the “Susceptibility (LJ)” value was “S and R”; the “Total number of isolates Susceptible (LJ)” value was 513.

These data come from patent publication US12139768B2, “Polymerase chain reaction primers and probes for Mycobacterium tuberculosis” (Rutgers, The State University of New Jersey, priority 2014, dated 2024).
